# Where “and” joins values, the source holds several entries; their conditions need not be identical. Equal values may be shown once.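 A five-concentration, 48-hour dose response in 96-well plates underlies each endpoint, interpolated linearly between surrounding concentrations. GI50 is the concentration that inhibits growth by half. At the TGI there is no net growth.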
# Assays:
# Test in all cases: NCI tumour cell line growth inhibition, 48 h
# DLD-1 colon = system: DLD-1 colon
# M19-MEL melanoma = system: M19-MEL melanoma
# DMS 273 small cell lung = system: DMS 273 small cell lung
# MDA-N = system: MDA-N
# DMS 114 small cell lung = system: DMS 114 small cell lung
# XF 498 CNS = system: XF 498 CNS
# SN12K1 renal = system: SN12K1 renal
# HOP-18 NSCLC = system: HOP-18 NSCLC
# SNB-78 CNS = system: SNB-78 CNS
# RXF-631 renal = system: RXF-631 renal
smiles,measurement,setting,value
CCC12CCCN(Cc3ccccc3)C1c1c(n(C)c3ccccc13)CC2 (stereo not drawn),TGI,DLD-1 colon,> 253 µM
same,TGI,M19-MEL melanoma,> 253 µM
same,TGI,DMS 273 small cell lung,> 253 µM
COC(=O)C[C@](O)(CCCC(C)(C)O)C(=O)O[C@@H]1C(OC)=C[C@]23CCCN2CCc2cc4c(cc2[C@H]13)OCO4,TGI,MDA-N,> 25 µM
same,TGI,DMS 114 small cell lung,0.0162 µM
same,TGI,XF 498 CNS,0.0391 µM
same,TGI,SN12K1 renal,0.0481 µM
same,TGI,DLD-1 colon,0.228 µM
same,TGI,M19-MEL melanoma,0.0866 µM
same,TGI,HOP-18 NSCLC,0.418 µM
same,TGI,SNB-78 CNS,0.285 µM
same,TGI,DMS 273 small cell lung,< 0.0204 µM
N.N.N.N.O=C([O-])CCl.O=C([O-])CCl.[Co+3].[O-][Cl+3]([O-])([O-])[O-],GI50,DLD-1 colon,> 100 µM
same,TGI,DLD-1 colon,> 100 µM
same,GI50,SNB-78 CNS,> 100 µM
same,TGI,SNB-78 CNS,> 100 µM
CN(C)CCNC(=O)c1cccc2ccc(-c3ccc(O)cc3)nc12,TGI,MDA-N,8.3 µM
same,TGI,DMS 114 small cell lung,10.8 µM and 7.31 µM
same,GI50,SN12K1 renal,0.383 µM
same,TGI,SN12K1 renal,3.21 µM and 2.35 µM
same,GI50,DLD-1 colon,2.07 µM
same,TGI,DLD-1 colon,28 µM and 13.4 µM
same,GI50,M19-MEL melanoma,2.12 µM
same,TGI,M19-MEL melanoma,7.04 µM and 6.83 µM
same,GI50,HOP-18 NSCLC,2.44 µM
same,TGI,HOP-18 NSCLC,7.14 µM and 8.35 µM
same,TGI,SNB-78 CNS,20.3 µM
same,TGI,DMS 273 small cell lung,6.07 µM
CC(C)NC(=O)OCc1c(COC(=O)NC(C)C)c(-c2cc[n+](COC(=O)C3CC3)cc2)n2c1CCC2,TGI,MDA-N,> 100 µM
CCN(CC)CCCN1CCc2c([nH]c3ccccc23)C1c1cccnc1 (stereo not drawn),TGI,DMS 114 small cell lung,> 100 µM
same,TGI,XF 498 CNS,> 100 µM
same,TGI,RXF-631 renal,> 100 µM
same,TGI,DLD-1 colon,> 100 µM
same,TGI,M19-MEL melanoma,> 100 µM
same,TGI,SNB-78 CNS,> 100 µM
same,TGI,DMS 273 small cell lung,> 100 µM
OC(CC1SCCCS1)c1ccccc1 (stereo not drawn),TGI,DMS 114 small cell lung,> 100 µM
same,TGI,XF 498 CNS,> 100 µM
same,TGI,DLD-1 colon,> 100 µM
same,TGI,M19-MEL melanoma,> 100 µM
same,TGI,HOP-18 NSCLC,> 100 µM
same,TGI,DMS 273 small cell lung,> 100 µM
Cc1ccc(S(=O)(=O)Nc2ccccc2C=O)cc1,TGI,MDA-N,42.9 µM
COc1cccc(C2CC(C)(O)Oc3cc4c(cc32)OCO4)c1O (stereo not drawn),TGI,MDA-N,10.4 µM
CC(=O)N=C1N(/C=C2\C(=O)Oc3ccccc3C2=O)C(=O)/C(=C/c2cccc(Cl)c2Cl)N1C,TGI,MDA-N,> 100 µM
CSc1nc(=O)n(CCC#N)nc1SC,TGI,MDA-N,51.4 µM
CC1(C)COC(C2(C)C(=O)C=C(c3ccccc3)c3ccccc32)=N1 (stereo not drawn),TGI,DMS 114 small cell lung,> 100 µM
same,TGI,RXF-631 renal,> 100 µM
same,TGI,DLD-1 colon,> 100 µM
same,TGI,M19-MEL melanoma,> 100 µM
same,TGI,HOP-18 NSCLC,> 100 µM
COc1ccc(C2SC(N)=Nc3c2c(C)nn3C(=O)c2ccncc2)cc1OC (stereo not drawn),TGI,MDA-N,> 10 µM
COc1ccc2occ(CCC(=O)O)c2c1,TGI,DMS 114 small cell lung,> 100 µM
same,TGI,XF 498 CNS,> 100 µM
same,TGI,DLD-1 colon,> 100 µM
same,TGI,M19-MEL melanoma,> 100 µM
same,TGI,HOP-18 NSCLC,> 100 µM
same,TGI,SNB-78 CNS,> 100 µM
same,TGI,DMS 273 small cell lung,> 100 µM
O=C(CCN(C(=O)O)S(=O)(=O)c1ccc(NC(=O)c2ccccc2)cc1)Nc1ccccc1,TGI,DMS 114 small cell lung,> 68.5 µM
same,TGI,XF 498 CNS,> 100 µM
same,TGI,RXF-631 renal,> 100 µM
same,TGI,DLD-1 colon,> 100 µM
same,TGI,M19-MEL melanoma,> 100 µM
same,TGI,HOP-18 NSCLC,> 100 µM
same,TGI,SNB-78 CNS,> 100 µM
same,TGI,DMS 273 small cell lung,> 82.4 µM
CCOC(=O)C(C#N)C1=CC(=O)C(=O)c2ccc(OC)cc21 (stereo not drawn),TGI,MDA-N,17.1 µM
C/C=C/C(CC(O)(C(F)(F)F)C(F)(F)F)=N/NC(N)=S,TGI,MDA-N,> 10 µM
COc1cccc2c1C(=O)c1c(O)c3c(c(O)c1C2=O)C[C@@](O)(C(=O)CO)C[C@@H]3OC1CC(N)CC(C)O1 (stereo partly drawn),GI50,MDA-N,0.0272 µM
same,TGI,MDA-N,0.274 µM and 0.132 µM
same,GI50,DMS 114 small cell lung,0.0238 µM and 0.0476 µM
same,TGI,DMS 114 small cell lung,0.167 µM and 0.299 µM
same,GI50,XF 498 CNS,0.0251 µM and 0.052 µM
same,TGI,XF 498 CNS,0.144 µM and 0.101 µM
same,TGI,SN12K1 renal,0.0846 µM
same,TGI,RXF-631 renal,0.9 µM
same,GI50,DLD-1 colon,0.127 µM
same,TGI,DLD-1 colon,1.18 µM and 2.67 µM
same,GI50,M19-MEL melanoma,0.0363 µM
same,TGI,M19-MEL melanoma,0.186 µM and 0.174 µM
same,GI50,HOP-18 NSCLC,0.0713 µM
same,TGI,HOP-18 NSCLC,0.906 µM and 0.445 µM
same,GI50,SNB-78 CNS,0.085 µM
same,TGI,SNB-78 CNS,1.73 µM and 2.02 µM
same,GI50,DMS 273 small cell lung,0.0134 µM and 0.0303 µM
same,TGI,DMS 273 small cell lung,0.202 µM and 0.129 µM
CC1(C)C(C#N)C1C1=C(N2CCOCC2)[C@]2(C)C(OC(=O)c3ccccc3)CC[C@@H]2C1 (stereo partly drawn),TGI,MDA-N,> 100 µM
COC(=O)C(C(=O)c1ccccc1)C(C(=O)C(=O)Nc1ccc(OC)cc1OC)C(=O)C(=O)c1ccc(C)cc1 (stereo not drawn),TGI,DMS 114 small cell lung,> 100 µM
same,TGI,XF 498 CNS,> 100 µM
same,TGI,RXF-631 renal,> 100 µM
same,TGI,DLD-1 colon,> 100 µM
same,TGI,M19-MEL melanoma,> 100 µM
same,TGI,HOP-18 NSCLC,> 100 µM
same,TGI,SNB-78 CNS,> 100 µM
same,TGI,DMS 273 small cell lung,> 100 µM
c1ccc2cc(-c3cc4ccccc4s3)ccc2c1,TGI,DMS 114 small cell lung,> 100 µM
same,TGI,XF 498 CNS,> 100 µM
same,TGI,DLD-1 colon,> 100 µM
same,TGI,M19-MEL melanoma,> 100 µM
same,TGI,HOP-18 NSCLC,> 100 µM
same,TGI,SNB-78 CNS,> 100 µM
same,TGI,DMS 273 small cell lung,> 100 µM
